Reference: the supplement of paper PMC10307832

Experiments:
Assay in all cases: relative viability (nuclei count vs DMSO), 5 days (fraction); higher = more cells survive
A549 = system: A549
Procedure, shortened: (§1)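 The day after seeding in 1536-well plates, lung cancer cell lines were treated by pin tool with a single drug, or with a fixed anchor-drug dose together with five library-drug doses (not always all listed) in √10 steps. After 5 days, a combined fix-and-stain solution (final 0.05% Triton X-100, 1% formaldehyde, 1 ug/ml Hoechst) was added. Nuclei counted on 4× images gave relative viability as treated counts over vehicle counts, reported as the median of duplicate plates.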

ABC-1 = system: ABC-1
Procedure, shortened: as §1

EKVX = system: EKVX
Procedure, shortened: as §1

NCI-H1623 = system: NCI-H1623
Procedure, shortened: as §1

NCI-H2126 = system: NCI-H2126
Procedure, shortened: as §1

NCI-H522 = system: NCI-H522
Procedure, shortened: as §1

Calu-6 = system: Calu-6
Procedure, shortened: as §1

EBC-1 = system: EBC-1
Procedure, shortened: as §1

IA-LM = system: IA-LM
Procedure, shortened: as §1

NCI-H1299 = system: NCI-H1299
Procedure, shortened: as §1

NCI-H1703 = system: NCI-H1703
Procedure, shortened: as §1

With C=C1C(=O)O[C@@H](CCCCCCCC)[C@@H]1C(=O)O [C-75] + N=C(N)NC(=N)NCCc1ccccc1 [Phenformin] (partner 250 µM) as the molecule, how does the relative viability (A549; first compound 0.08 µM) read?
The relative viability was 0.185.

What about the relative viability (A549; first compound 0.253 µM) of the same molecule?
The relative viability was 0.211.

What about the relative viability (A549; first compound 0.8 µM) of the same molecule?
The relative viability was 0.186.

And the relative viability (A549; first compound 2.53 µM)?
The relative viability was 0.119.

What about the relative viability (A549; first compound 8 µM) of the same molecule?
Its relative viability is 0.121.

And the relative viability (ABC-1; first compound 0.08 µM)?
The relative viability was 0.209.

And the relative viability (ABC-1; first compound 0.253 µM)?
Its relative viability is 0.289.

What about the relative viability (ABC-1; first compound 0.8 µM) of the same molecule?
Its relative viability is 0.231.

And the relative viability (ABC-1; first compound 2.53 µM)?
Its relative viability is 0.19.

What about the relative viability (ABC-1; first compound 8 µM) of the same molecule?
The relative viability was 0.199.

What about the relative viability (EKVX; first compound 0.08 µM) of the same molecule?
Its relative viability is 0.213.

What about the relative viability (EKVX; first compound 0.253 µM) of the same molecule?
The relative viability was 0.228.

What about the relative viability (EKVX; first compound 0.8 µM) of the same molecule?
Its relative viability is 0.232.

What about the relative viability (EKVX; first compound 8 µM) of the same molecule?
Its relative viability is 0.25.

And the relative viability (NCI-H1623; first compound 0.08 µM)?
The relative viability was 0.613.

What about the relative viability (NCI-H1623; first compound 0.253 µM) of the same molecule?
Its relative viability is 0.652.

And the relative viability (NCI-H1623; first compound 0.8 µM)?
Its relative viability is 0.584.

And the relative viability (NCI-H1623; first compound 2.53 µM)?
Its relative viability is 0.542.

And the relative viability (NCI-H1623; first compound 8 µM)?
Its relative viability is 0.578.

What about the relative viability (NCI-H2126; first compound 0.08 µM) of the same molecule?
The relative viability was 0.505.

And the relative viability (NCI-H2126; first compound 0.253 µM)?
Its relative viability is 0.558.

What about the relative viability (NCI-H2126; first compound 0.8 µM) of the same molecule?
The relative viability was 0.501.

What about the relative viability (NCI-H2126; first compound 2.53 µM) of the same molecule?
The relative viability was 0.48.

What about the relative viability (NCI-H2126; first compound 8 µM) of the same molecule?
Its relative viability is 0.515.

What about the relative viability (NCI-H522; first compound 0.08 µM) of the same molecule?
The relative viability was 0.61.

What about the relative viability (NCI-H522; first compound 0.253 µM) of the same molecule?
The relative viability was 0.382.

What about the relative viability (NCI-H522; first compound 0.8 µM) of the same molecule?
Its relative viability is 0.614.

What about the relative viability (NCI-H522; first compound 8 µM) of the same molecule?
The relative viability was 0.582.

What does the source list for CC1(C)CCC(c2ccc(Cl)cc2)=C(CN2CCN(c3ccc(C(=O)NS(=O)(=O)c4ccc(N[C@H](CCN5CCOCC5)CSc5ccccc5)c(S(=O)(=O)C(F)(F)F)c4)cc3)CC2)C1 [Navitoclax] + COc1cc2c(Oc3ccc(NC(=O)C4(C(=O)Nc5ccc(F)cc5)CC4)cc3F)ccnc2cc1OCCCN1CCOCC1 [Foretinib] (partner 0.25 µM)?
relative viability (A549; first compound 0.005 µM): 0.887; relative viability (A549; first compound 0.01581 µM): 1.03; relative viability (A549; first compound 0.05 µM): 0.994; relative viability (A549; first compound 0.1581 µM): 1.02; relative viability (A549; first compound 0.5 µM): 0.916; relative viability (ABC-1; first compound 0.005 µM): 1.32; relative viability (ABC-1; first compound 0.01581 µM): 1.17; relative viability (ABC-1; first compound 0.05 µM): 1.12; relative viability (ABC-1; first compound 0.1581 µM): 1.07; relative viability (ABC-1; first compound 0.5 µM): 1.05; relative viability (Calu-6; first compound 0.005 µM): 0.852; relative viability (Calu-6; first compound 0.01581 µM): 0.921; relative viability (Calu-6; first compound 0.05 µM): 0.937; relative viability (Calu-6; first compound 0.1581 µM): 0.916; relative viability (Calu-6; first compound 0.5 µM): 0.894; relative viability (EBC-1; first compound 0.005 µM): 0.0939; relative viability (EBC-1; first compound 0.01581 µM): 0.118; relative viability (EBC-1; first compound 0.05 µM): 0.113; relative viability (EBC-1; first compound 0.1581 µM): 0.103; relative viability (EBC-1; first compound 0.5 µM): 0.0895; relative viability (EKVX; first compound 0.005 µM): 1.02; relative viability (EKVX; first compound 0.01581 µM): 1.01; relative viability (EKVX; first compound 0.05 µM): 0.544; relative viability (EKVX; first compound 0.1581 µM): 0.8; relative viability (EKVX; first compound 0.5 µM): 0.629; relative viability (IA-LM; first compound 0.005 µM): 1.18; relative viability (IA-LM; first compound 0.01581 µM): 1.2; relative viability (IA-LM; first compound 0.05 µM): 1.36; relative viability (IA-LM; first compound 0.1581 µM): 1.27; relative viability (IA-LM; first compound 0.5 µM): 1.18; relative viability (NCI-H1299; first compound 0.005 µM): 1.1; relative viability (NCI-H1299; first compound 0.01581 µM): 1.1; relative viability (NCI-H1299; first compound 0.05 µM): 1.12; relative viability (NCI-H1299; first compound 0.1581 µM): 1.11; relative viability (NCI-H1299; first compound 0.5 µM): 1.11; relative viability (NCI-H1623; first compound 0.005 µM): 0.863; relative viability (NCI-H1623; first compound 0.01581 µM): 0.981; relative viability (NCI-H1623; first compound 0.05 µM): 0.781; relative viability (NCI-H1623; first compound 0.1581 µM): 0.842; relative viability (NCI-H1623; first compound 0.5 µM): 0.811; relative viability (NCI-H1703; first compound 0.005 µM): 0.472; relative viability (NCI-H1703; first compound 0.01581 µM): 0.369; relative viability (NCI-H1703; first compound 0.05 µM): 0.416; relative viability (NCI-H1703; first compound 0.1581 µM): 0.337; relative viability (NCI-H1703; first compound 0.5 µM): 0.353; relative viability (NCI-H2126; first compound 0.005 µM): 1.25; relative viability (NCI-H2126; first compound 0.01581 µM): 1.17; relative viability (NCI-H2126; first compound 0.1581 µM): 1.14; relative viability (NCI-H2126; first compound 0.5 µM): 1.19
